Measured values reported in article PMC3771522 (Analytical chemistry, 2013).

Legend:
[1] = target: proliferating cell nuclear antigen (PCNA) (Homo sapiens, UniProt P12004); assay: fluorescence titration, hyperbolic single-site fit; type: binding; conditions: constant PCNA, increasing TNP-ATP
creatine phosphokinase = assay: fluorescence titration, hyperbolic single-site fit; conditions: known ATP-binding protein for comparison

Sequence of proliferating cell nuclear antigen (PCNA) (P12004 whole entry): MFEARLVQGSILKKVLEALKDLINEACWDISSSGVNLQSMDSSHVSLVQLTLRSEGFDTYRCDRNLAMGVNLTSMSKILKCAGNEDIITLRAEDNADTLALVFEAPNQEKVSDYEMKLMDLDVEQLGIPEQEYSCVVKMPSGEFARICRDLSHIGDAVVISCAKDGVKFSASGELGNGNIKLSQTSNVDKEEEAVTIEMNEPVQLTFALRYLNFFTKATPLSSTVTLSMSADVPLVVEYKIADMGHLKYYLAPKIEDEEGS

TNP-ATP
Kd [1]: 13 µM | Kd (creatine phosphokinase): 27 µM
